By IC50 is commonly meant the concentration at which inhibition is half-maximal.

From patent US20250082761A1, “DUAL-TARGETED RNA POLYMERASE INHIBITORS: CONJUGATES OF BENZOXAZINO- AND SPIRO-RIFAMYCINS WITH N ALPHA-AROYL-N-ARYL-[…]” (priority 2021, published 2025) come the findings set out here.

SMILES strings stand for the structures. ≈ marks a conversion by molar mass, not a printed value.

Data set [1] has as its system Mycobacterium avium ATCC 25291. The data set is described as follows: Microplate Alamar Blue MIC assay, M. avium. In kind it is cell-based. The settings on record: unit not given. On the technique in general: The colour change of resazurin is a common sign of viable cells or microbes.
The test system of data set [2] is Mycobacterium abscessus IDR-1400012185. In kind it is cell-based. The arrangement: unit not given here.
The subject of the next data set is CYP3A4. The data set is described as follows: in vitro. The settings on record: male, human, hepatocytes.
Data set [3] deals with Mycobacterium tuberculosis H37Rv. The data set is described as follows: microbe, parasite or virus in culture. In kind it is cell-based. The settings on record: read-out: antibacterial activity M. tuberculosis H37Rv MIC.

In the case of `[2H]C([2H])(c1ccccc1)[C@@H](NC(=O)c1ccccc1F)C(=O)Nc1cc(F)ccc1N1CCN(c2cc(O)c3nc4c5c6c7c(C)c(O)c5c(=O)c(c-4oc3c2)NC(=O)/C(C)=C\C=C\[C@H](C)[C@H](O)[C@@H](C)[C@@H](O)[C@@H](C)[C@H](OC(C)=O)[C@H](C)[C@@H](OC)/C=C/O[C@@](C)(O7)C6=O)CC1` [IX-511a, 3'-hydroxy-benzoxazinorifamycin S-(IX-370a) conjugate], the “antibacterial activity M. avium ATCC 25291” value in data set [1] came to 0.024. Besides, in data set [2], the “antibacterial activity M. abscessus IDR-1400012185” value amounted to 1.56. Also, the IC50 with CYP3A4 is 10 µM. Further, the MIC in data set [3] amounted to 0.002 µg/mL (≈ 0.00158 µM).
Take `[2H]C([2H])(c1ccccc1)C(NC(=O)c1ccccc1F)C(=O)Nc1cc(F)ccc1N1CCC2(CC1)N=C1C(=C3NC(=O)/C(C)=C\C=C\[C@H](C)[C@H](O)[C@@H](C)[C@@H](O)[C@@H](C)[C@H](OC(C)=O)[C@H](C)[C@@H](OC)/C=C/O[C@]4(C)Oc5c(C)c(O)c(c1c5C4=O)C3=O)N2` (stereo partly drawn) [IX-515, spirorifamycin S-(IX-513) conjugate]: the “antibacterial activity M. avium ATCC 25291” value in data set [1] worked out at 0.78. Further, the “antibacterial activity M. abscessus IDR-1400012185” value in data set [2] was 6.25. The IC50 in the data set with CYP3A4 was more than 10 µM. Moreover, the MIC in data set [3] was determined as 0.031 µg/mL (≈ 0.0265 µM).
Regarding `[2H]C([2H])(c1ccccc1)[C@@H](NC(=O)c1ccccc1F)C(=O)Nc1cc(F)ccc1N1CCN(c2ccc3nc4c5c6c7c(C)c(O)c5c(=O)c(c-4oc3c2)NC(=O)/C(C)=C\C=C\[C@H](C)[C@H](O)[C@@H](C)[C@@H](O)[C@@H](C)[C@H](OC(C)=O)[C@H](C)[C@@H](OC)/C=C/O[C@@](C)(O7)C6=O)CC1` [IX-516a, benzoxazinorifamycin S-(IX-370a) conjugate], in data set [2], the “antibacterial activity M. abscessus IDR-1400012185” value is on record as 3.13. Also, in the data set on CYP3A4, the IC50 came to 10 µM. The MIC in data set [3] was 0.031 µg/mL (≈ 0.0248 µM).
Take `[2H]C([2H])(c1ccccc1)[C@@H](NC(=O)c1ccccc1F)C(=O)Nc1cc(F)ccc1N1CCN(c2cc(O)c3nc4c5c6c7c(C)c(O)c5c(=O)c(c-4oc3c2)NC(=O)/C(C)=C\C=C\[C@H](C)[C@H](O)[C@@H](C)[C@@H](O)[C@@H](C)[C@H](O)[C@H](C)[C@@H](OC)/C=C/O[C@@](C)(O7)C6=O)CC1` [IX-519a, desacetyl-3′-hydroxy-benzoxazinorifamycin S-(IX-370a) conjugate]: in data set [3], the MIC turned out to be 0.024 µg/mL (≈ 0.0196 µM).
`CO[C@H]1/C=C/O[C@@]2(C)Oc3c(C)c(O)c4c(O)c(c(/C=N/N5CCN(C)CC5)c(O)c4c3C2=O)NC(=O)/C(C)=C\C=C\[C@H](C)[C@H](O)[C@@H](C)[C@@H](O)[C@@H](C)[C@H](OC(C)=O)[C@@H]1C` [rifampin, reference compound]: in data set [1], the “antibacterial activity M. avium ATCC 25291” value came to 0.024. Moreover, in data set [2], the “antibacterial activity M. abscessus IDR-1400012185” value amounted to 1.56. Moreover, the MIC in data set [3] was 0.063 µg/mL (≈ 0.0766 µM).
